Measurements taken from article PMC8772704, “Quantification of Fosfomycin in Combination with Nine Antibiotics in Human Plasma and Cation-Adjusted Mueller-Hinton II Broth via LCMS” (Antibiotics, 2022).

Legend:
[1] = Long-term storage stability of antibiotics in combination with fosfomycin spiked in plasma/CAMHB (−30 °C, −80 °C); assay type: physicochemical; conditions: for Mean accuracy (%), Table S15 / Mean accuracy (%), Table S17 / Mean accuracy (%), Table S16 / Mean accuracy (%), Table S18: CAMHB; for Mean accuracy (%), Table S15 / Mean accuracy (%), Table S17 / Mean accuracy (%), Table S16 / Mean accuracy (%), Table S18 / Mean accuracy (%), Table S11 / Mean accuracy (%), Table S13 / Mean accuracy (%), Table S12 / Mean accuracy (%), Table S14: combination with fosfomycin; for Mean accuracy (%), Table S15 / Mean accuracy (%), Table S11: 2 weeks at -30 °C; for Mean accuracy (%), Table S17 / Mean accuracy (%), Table S13: 2 weeks at -80 °C; for Mean accuracy (%), Table S16 / Mean accuracy (%), Table S12: 4 weeks at -30 °C; for Mean accuracy (%), Table S18 / Mean accuracy (%), Table S14: 4 weeks at -80 °C; for Mean accuracy (%), Table S11 / Mean accuracy (%), Table S13 / Mean accuracy (%), Table S12 / Mean accuracy (%), Table S14: plasma
Method: (§1) The stability of fosfomycin in combination with other antibiotics in plasma/CAMHB was evaluated under various operational conditions. Spiked plasma/CAMHB samples were evaluated at 7 h and 15 h in the autosampler at 4 °C. Long-term stability was evaluated up to 4 weeks of antibiotic-spiked plasma/CAMHB samples at LQC, MQC, and HQC concentrations stored at −30 °C and −80 °C.

[2] = 32-day stability of stock solutions stored at −80 °C; assay type: physicochemical; conditions: stock solution stored at -80 °C; peak area Day 32 vs Day 1
Method: Stability of stock solutions
All stock solutions of antibiotics and their corresponding stable-isotope variants were measured prior to cold storage at -80 °C and tested at 32 days later.
Stability was determined by comparing the peak area of each drug between its Day 1 and Day 32 measurement. Acceptable criteria for stability was met if the […]

[3] = Autosampler stability at 4 °C of extracted antibiotic-spiked plasma/CAMHB samples; conditions: for Mean accuracy (%), Table S8 / Mean accuracy (%), Table S10: CAMHB extracted samples; for Mean accuracy (%), Table S8 / Mean accuracy (%), Table S7: 7 h autosampler 4 °C; for Mean accuracy (%), Table S10 / Mean accuracy (%), Table S9: 15 h autosampler 4 °C; for Mean accuracy (%), Table S7 / Mean accuracy (%), Table S9: plasma extracted samples
Method: as §1

[4] = HQC: nominal mg/L CAZ 150, FEP 200, PIP 250, ATM 300, MEM 200, DOR 175, LVX 30, CEFT 250, TZB 87.5, TGC 20, AVI 30, FOF 1000
[5] = LQC: nominal 1 mg/L (levofloxacin, avibactam 0.5; fosfomycin 10)
[6] = MQC: nominal mg/L CAZ 75, FEP 100, PIP 150, ATM 150, MEM 100, DOR 87.5, LVX 15, CEFT 125, TZB 43.75, TGC 10, AVI 15, FOF 500

Mean accuracy (%), Table S15 ([1]; HQC (nominal as E15)) [%] | Mean accuracy (%), Table S15 ([1]; LQC (nominal as E13)) [%] | Mean accuracy (%), Table S15 ([1]; MQC (nominal as E14)) [%] | Mean accuracy (%), Table S17 ([1]; HQC (nominal as E15)) [%] | Mean accuracy (%), Table S17 ([1]; LQC (nominal as E13)) [%] | Mean accuracy (%), Table S17 ([1]; MQC (nominal as E14)) [%] | Mean accuracy (%), Table S16 ([1]; HQC (nominal as E15)) [%] | 32 Day Stability (%) [2] [%] | Mean accuracy (%), Table S8 ([3]; HQC (nominal as E15)) [%] | Mean accuracy (%), Table S8 ([3]; LQC (nominal as E13)) [%] | Mean accuracy (%), Table S8 ([3]; MQC (nominal as E14)) [%] | Mean accuracy (%), Table S10 ([3]; HQC (nominal as E15)) [%] | Mean accuracy (%), Table S10 ([3]; LQC (nominal as E13)) [%] | Mean accuracy (%), Table S10 ([3]; MQC (nominal as E14)) [%] | Mean accuracy (%), Table S7 [3, 4] [%] | Mean accuracy (%), Table S7 [3, 5] [%] | Mean accuracy (%), Table S7 [3, 6] [%] | Mean accuracy (%), Table S9 ([3]; HQC (nominal as E15)) [%] | Mean accuracy (%), Table S9 ([3]; LQC (nominal as E13)) [%] | Mean accuracy (%), Table S9 ([3]; MQC (nominal as E14)) [%] | SMILES | other results
90.4 | 93.7 | 89.1 | 95.3 | 101.2 | 95.4 | 80.6 | 102.63 | 106.4 | 108.8 | 104.2 | 107.5 | 108.3 | 104.9 | 96.2 | 105.4 | 100.7 | 95.6 | 103.4 | 99.3 | NC(=O)[C@@H]1CC[C@@H]2CN1C(=O)N2OS(=O)(=O)O [Avibactam, avibactam] | Stability verdict (within ±15% of nominal) ([1]; CAMHB samples stored at −30 °C, 4 weeks): instability; Mean accuracy (%), Table S16 ([1]; LQC (nominal as E13)): 82.3%; Mean accuracy (%), Table S16 ([1]; MQC (nominal as E14)): 80.6%; Mean accuracy (%), Table S18 ([1]; HQC (nominal as E15)): 98.6%; Mean accuracy (%), Table S18 ([1]; LQC (nominal as E13)): 103.0%; Mean accuracy (%), Table S18 ([1]; MQC (nominal as E14)): 98.2%; Mean accuracy (%), Table S11 ([1]; HQC (nominal as E15)): 93.9%; Mean accuracy (%), Table S11 ([1]; LQC (nominal as E13)): 100.6%; Mean accuracy (%), Table S11 ([1]; MQC (nominal as E14)): 99.4%; Mean accuracy (%), Table S13 ([1]; HQC (nominal as E15)): 95.2%; Mean accuracy (%), Table S13 ([1]; LQC (nominal as E13)): 105.1%; Mean accuracy (%), Table S13 ([1]; MQC (nominal as E14)): 100.4%; Mean accuracy (%), Table S12 ([1]; HQC (nominal as E15)): 87.3%; Mean accuracy (%), Table S12 ([1]; LQC (nominal as E13)): 100.2%; Mean accuracy (%), Table S12 ([1]; MQC (nominal as E14)): 92.6%; Mean accuracy (%), Table S14 ([1]; HQC (nominal as E15)): 92.9%; Mean accuracy (%), Table S14 ([1]; LQC (nominal as E13)): 101.0%; Mean accuracy (%), Table S14 ([1]; MQC (nominal as E14)): 94.5%
97.6 | 99.2 | 106.0 | 103.0 | 104.3 | 105.2 | 100.5 | 101.73 | 109.2 | 110.0 | 109.0 | 112.0 | 107.7 | 111.0 | 109.6 | 94.9 | 112.0 | 113.1 | 93.8 | 111.5 | CC(C)(O/N=C(\C(=O)N[C@@H]1C(=O)N2C(C(=O)[O-])=C(C[n+]3ccccc3)CS[C@H]12)c1csc(N)n1)C(=O)O [Ceftazidime, ceftazidime] | Mean accuracy (%), Table S16 ([1]; LQC (nominal as E13)): 105.0%; Mean accuracy (%), Table S16 ([1]; MQC (nominal as E14)): 100.4%; Mean accuracy (%), Table S18 ([1]; HQC (nominal as E15)): 103.8%; Mean accuracy (%), Table S18 ([1]; LQC (nominal as E13)): 103.5%; Mean accuracy (%), Table S18 ([1]; MQC (nominal as E14)): 106.4%; Mean accuracy (%), Table S11 ([1]; HQC (nominal as E15)): 99.5%; Mean accuracy (%), Table S11 ([1]; LQC (nominal as E13)): 97.8%; Mean accuracy (%), Table S11 ([1]; MQC (nominal as E14)): 105.0%; Mean accuracy (%), Table S13 ([1]; HQC (nominal as E15)): 99.4%; Mean accuracy (%), Table S13 ([1]; LQC (nominal as E13)): 102.6%; Mean accuracy (%), Table S13 ([1]; MQC (nominal as E14)): 101.0%; Mean accuracy (%), Table S12 ([1]; HQC (nominal as E15)): 100.3%; Mean accuracy (%), Table S12 ([1]; LQC (nominal as E13)): 100.3%; Mean accuracy (%), Table S12 ([1]; MQC (nominal as E14)): 105.0%; Mean accuracy (%), Table S14 ([1]; HQC (nominal as E15)): 107.7%; Mean accuracy (%), Table S14 ([1]; LQC (nominal as E13)): 98.8%; Mean accuracy (%), Table S14 ([1]; MQC (nominal as E14)): 103.0%
– | – | – | – | – | – | – | 98.42 | 98.8 | 113.0 | 103.4 | 99.5 | 112.8 | 103.9 | 101.3 | 110.7 | 105.2 | 103.6 | 114.0 | 106.1 | C[C@H]1COc2c(N3CCN(C)CC3)c(F)cc3c(=O)c(C(=O)O)cn1c23 [Levofloxacin, levofloxacin] | –
